From patent US7060716B2, “Tryptase inhibitors” (Altana Pharma AG, priority 2001, dated 2006)
Structures can show the parent of a compound that is named as a salt.

Target: T1, human tryptase (Homo sapiens, UniProt P20231)
T1 construct: from tissue
Assay: Inhibition of human tryptase (apparent dissociation constant Kiapp, chromogenic substrate tos-Gly-Pro-Arg-pNA)
Type: biochemical
Details: apparent dissociation constant in the presence of substrate; heparin 0.1–50 μg/ml; equilibrium conditions; read-out: Klapp
Description: The documented pathophysiological effects of mast cell tryptase are caused directly by the enzymatic activity of the protease. Accordingly, they are reduced or blocked by inhibitors which inhibit the enzymatic activity of the tryptase. A suitable measure for the affinity of a reversible inhibitor to the target protease is the equilibrium dissociation constant Ki of the enzyme-inhibitor complex. This Ki value can be determined via the effect of the inhibitor on the tryptase-induced cleavage of a chromogenic peptide-p-nitroanilide substrate or a fluorogenic peptide-aminomethylcoumarin substrate.
The dissociation constants for the tryptase-inhibitor complexes are determined under equilibrium conditions in accordance with the general proposals of Bieth (Bieth J G, Pathophysiological Interpretation of kinetic constants of protease inhibitors, Bull. Europ. Physiopath. Resp. 16:183–195, 1980) and the methods of Sommerhoff et al. (Sommerhoff C P et al., A Kazal-type inhibitor of human mast cell tryptase: Isolation from the medical leech Hirudo medicinalis, characterization, and sequence analysis, Biol. Chem. Hoppe-Seyler 375: 685–694, 1994).
Human tryptase is isolated from lung tissue or prepared recombinantly; the specific activity of the protease, determined by titration, is usually greater than 85% of the theoretical value. […]

T1 sequence (P20231 31-275): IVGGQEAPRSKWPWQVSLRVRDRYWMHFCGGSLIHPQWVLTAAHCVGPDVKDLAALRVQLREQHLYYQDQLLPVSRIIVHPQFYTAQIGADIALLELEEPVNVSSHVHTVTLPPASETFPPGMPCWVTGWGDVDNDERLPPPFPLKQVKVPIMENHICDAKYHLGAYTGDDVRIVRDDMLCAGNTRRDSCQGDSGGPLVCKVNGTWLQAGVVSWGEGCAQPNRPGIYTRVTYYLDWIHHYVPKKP

Row | Ki [nM] | Compound
1 | 2.6 | NCc1cccc(CNC(=O)OCC#Cc2cccc(C#CCOC(=O)NCc3cccc(CN)c3)n2)c1 [Compound 1, 2,6-Bis-[3-(3-aminomethylbenzylaminocarbonyloxy)prop-1-ynyl]pyridine trihydrochloride]
2 | 6 | NCc1ccc(CNC(=O)OCC#Cc2cccc(C#CCOC(=O)NCc3ccc(CN)cc3)n2)cc1 [Compound 2, 2,6-Bis-[3-(4-aminomethylbenzylaminocarbonyloxy)prop-1-ynyl]pyridine trihydrochloride]
